According to US10874743B2, “IRAK degraders and uses thereof” (Kymera Therapeutics, Inc., priority 2017, dated 2020):
Where “and” joins values, the source holds several entries; their conditions need not be identical. Equal entries are not always repeated. Where two headings read alike, the source gives them in different places.

Test: Pharmacokinetics in CD-1 mice (plasma concentrations, PK parameters)
Type: in vivo
Settings: for AUC(0-t): read-out: AUC0-last; for MRT inf: read-out: MRT0-inf; for MRT last: read-out: MRT0-last; for Vd: read-out: Vdss
Experimental: Pharmacokinetics for I-127, I-172 and I-210 were determined in Sprague Dawley rats or CD-1 mice by dosing intravenous (IV), subcutaneous (SC) or per oral (PO) using facility SOPs and sampling plasma at required time points. Species, formulation, route of administration and time points samples are listed below for each compound.
Compounds were extracted from plasma, injected on reverse phase HPLC, eluted with a gradient from 5% to 95% acetonitrile in water and quantified by mass spectrometry with internal standard. Data are expressed in ng compound per mL of plasma.

[1] = CD-1, mouse, plasma, iv, 2 mg/kg, mouse (CD1) iv 2 mg/kg, Mean IV
[2] = CD-1, mouse, plasma, sc, 30 mg/kg, mouse (CD1) sc 30 mg/kg, Mean SC
[3] = CD-1, mouse, plasma, sc, 30 mg/kg, mouse (CD1) sc 30 mg/kg, individual M07-M09
[4] = mouse (CD1) iv 2 mg/kg, Mean IV
[5] = mouse (CD1) iv 2 mg/kg, individual M01-M03, 2 mg/kg
[6] = mouse (CD1) sc 30 mg/kg, individual M07-M09
[7] = mouse (CD1) sc 30 mg/kg, individual M07-M09, 30 mg/kg

Q: What does the source list for `NC(=O)c1nn(-c2ccc(C(=O)NCCOCCOCCNc3cccc4c3C(=O)N(C3CCC(=O)NC3=O)C4=O)cc2)cc1NC(=O)c1coc(-c2ccnc(NCC(F)(F)F)c2)n1` (stereo not shown) [I-127, N-[3-carbamoyl-1-[4-[2-[2-[2-[[2-(2,6-dioxo-3-piperidyl)-1,3-dioxo-isoindolin-4-yl]amino]ethoxy]ethoxy]ethylcarbamoyl]phenyl]pyrazol-4-yl]-2-[2-(2,2,2-trifluoroethylamino)-4-pyridyl]oxazole-4-carboxamide]?
A: concentration at 5 min (CD-1, mouse, plasma, iv, 2 mg/kg, mouse (CD1) iv 2 mg/kg, 5 min, Mean IV, read-out: concentrations): 1290 ng/mL; concentration at 0.5 h (CD-1, mouse, plasma, iv, 2 mg/kg, mouse (CD1) iv 2 mg/kg, 0.500 h, Mean IV, read-out: concentrations): 102 ng/mL; concentration at 1 h (CD-1, mouse, plasma, iv, 2 mg/kg, mouse (CD1) iv 2 mg/kg, 1.00 h, Mean IV, read-out: concentrations): 49.7 ng/mL; concentration at 2 h (CD-1, mouse, plasma, iv, 2 mg/kg, mouse (CD1) iv 2 mg/kg, 2.00 h, Mean IV, read-out: concentrations): 31.7 ng/mL; concentration at 4 h (CD-1, mouse, plasma, iv, 2 mg/kg, mouse (CD1) iv 2 mg/kg, 4.00 h, Mean IV, read-out: concentrations): 12.2 ng/mL; concentration at 6 h (CD-1, mouse, plasma, iv, 2 mg/kg, mouse (CD1) iv 2 mg/kg, 6.00 h, Mean IV, read-out: concentrations): 5.31 ng/mL; concentration at 24 h (CD-1, mouse, plasma, iv, 2 mg/kg, mouse (CD1) iv 2 mg/kg, 24.0 h, individual M01-M03, read-out: concentrations): 2.2 ng/mL; clearance [1]: 84.9 mL/min/kg; half-life [1]: 3.65 h; AUC(0-inf) (CD-1, mouse, plasma, iv, 2 mg/kg, mouse (CD1) iv 2 mg/kg, Mean IV, read-out: AUC0-inf): 511 ng·h/mL; AUC(0-t) [1]: 496 ng·h/mL; C0 (CD-1, mouse, plasma, iv, 2 mg/kg, mouse (CD1) iv 2 mg/kg, Mean IV, read-out: C0): 2160 ng/mL; MRT inf [1]: 1.54 h; MRT last [1]: 1.1 h; Vd [1]: 6.25 L/kg; Vd (CD-1, mouse, plasma, iv, 2 mg/kg, mouse (CD1) iv 2 mg/kg, individual M01-M03): 5.73 L/kg; AUC(0-t) [2]: 39.8 ng·h/mL; Cmax (CD-1, mouse, plasma, sc, 30 mg/kg, mouse (CD1) sc 30 mg/kg, Mean SC, read-out: Cmax): 2.91 ng/mL; MRT last [2]: 11.3 h; Tmax (CD-1, mouse, plasma, sc, 30 mg/kg, mouse (CD1) sc 30 mg/kg, Mean SC, read-out: Tmax): 2.67 h; half-life [3]: 39.2 h; AUC(0-inf) (CD-1, mouse, plasma, sc, 30 mg/kg, mouse (CD1) sc 30 mg/kg, individual M07-M09, read-out: AUC0-inf): 144 ng·h/mL; AUC(0-t) [3]: 33 ng·h/mL; MRT inf [3]: 54.2 h; MRT last [3]: 11.7 h; Tmax (CD-1, mouse, plasma, sc, 30 mg/kg, mouse (CD1) sc 30 mg/kg, individual M07-M09, read-out: Tmax): 2 h; bioavailability (CD-1, plasma, mouse (CD1) sc 30 mg/kg, Mean SC): 0.534%; concentrations (mouse (CD1) iv 2 mg/kg, 5 min, individual M01-M03, 2 mg/kg): 2310 ng/mL and 831 ng/mL and 738 ng/mL; concentrations (mouse (CD1) iv 2 mg/kg, 0.500 h, individual M01-M03, 2 mg/kg): 166 ng/mL and 58.7 ng/mL and 82.1 ng/mL; concentrations (mouse (CD1) iv 2 mg/kg, 1.00 h, individual M01-M03, 2 mg/kg): 91 ng/mL and 22.3 ng/mL and 35.8 ng/mL; concentrations (mouse (CD1) iv 2 mg/kg, 2.00 h, individual M01-M03, 2 mg/kg): 51.5 ng/mL and 12.7 ng/mL and 30.9 ng/mL; concentrations (mouse (CD1) iv 2 mg/kg, 4.00 h, individual M01-M03, 2 mg/kg): 18.6 ng/mL and 7.08 ng/mL and 10.9 ng/mL; concentrations (mouse (CD1) iv 2 mg/kg, 6.00 h, individual M01-M03, 2 mg/kg): 8.13 ng/mL and 3.38 ng/mL and 4.42 ng/mL; concentrations (mouse (CD1) iv 2 mg/kg, 24.0 h, individual M01-M03, 2 mg/kg): BQL; AUCExtra [4]: 2.97%; AUMCExtra [4]: 29.9%; AUC0-last [5]: 896 ng·h/mL and 278 ng·h/mL and 316 ng·h/mL; AUC(0-inf) [5]: 919 ng·h/mL and 288 ng·h/mL and 325 ng·h/mL; AUCExtra [5]: 2.57% and 3.55% and 2.80%; AUMCExtra [5]: 33.8% and 34.9% and 20.8%; C0 [5]: 3910 ng/mL and 1412 ng/mL and 1145 ng/mL; Cl [5]: 36.3 mL/min/kg and 116 mL/min/kg and 103 mL/min/kg; MRT0-inf [5]: 2.63 h and 0.916 h and 1.08 h; MRT0-last [5]: 1.79 h and 0.618 h and 0.882 h; T1/2 [5]: 7.43 h and 2.09 h and 1.43 h; Tlast [5]: 24.0 h and 6.00 h (2×); Vdss [5]: 6.36 L/kg and 6.67 L/kg; concentrations (mouse (CD1) po 30 mg/kg, 0.500 h, individual M04-M06): BQL; concentrations (mouse (CD1) po 30 mg/kg, 1.00 h, individual M04-M06): BQL; concentrations (mouse (CD1) po 30 mg/kg, 2.00 h, individual M04-M06): BQL; concentrations (mouse (CD1) po 30 mg/kg, 4.00 h, individual M04-M06): BQL; concentrations (mouse (CD1) po 30 mg/kg, 6.00 h, individual M04-M06): BQL; concentrations (mouse (CD1) po 30 mg/kg, 24.0 h, individual M04-M06): BQL; concentrations (mouse (CD1) sc 30 mg/kg, 0.500 h, Mean SC): 1.81 ng/mL; concentrations (mouse (CD1) sc 30 mg/kg, 0.500 h, individual M07-M09, 30 mg/kg): 1.29 ng/mL and 2.28 ng/mL and 1.85 ng/mL; concentrations (mouse (CD1) sc 30 mg/kg, 1.00 h, Mean SC): 2 ng/mL; concentrations (mouse (CD1) sc 30 mg/kg, 1.00 h, individual M07-M09, 30 mg/kg): 1.87 ng/mL and 2.51 ng/mL and 1.61 ng/mL; concentrations (mouse (CD1) sc 30 mg/kg, 2.00 h, Mean SC): 2.88 ng/mL; concentrations (mouse (CD1) sc 30 mg/kg, 2.00 h, individual M07-M09, 30 mg/kg): 2.21 ng/mL and 4.61 ng/mL and 1.82 ng/mL; concentrations (mouse (CD1) sc 30 mg/kg, 4.00 h, Mean SC): 1.59 ng/mL; concentrations (mouse (CD1) sc 30 mg/kg, 4.00 h, individual M07-M09, 30 mg/kg): 1.01 ng/mL and 1.86 ng/mL and 1.9 ng/mL; concentrations (mouse (CD1) sc 30 mg/kg, 6.00 h, Mean SC): 1.8 ng/mL; concentrations (mouse (CD1) sc 30 mg/kg, 6.00 h, individual M07-M09, 30 mg/kg): 1.41 ng/mL and 2.82 ng/mL and 1.18 ng/mL; concentrations (mouse (CD1) sc 30 mg/kg, 24.0 h, Mean SC): 1.38 ng/mL; concentrations (mouse (CD1) sc 30 mg/kg, 24.0 h, individual M07-M09, 30 mg/kg): 1.3 ng/mL and 1.58 ng/mL and 1.26 ng/mL; Tlast (mouse (CD1) sc 30 mg/kg, Mean SC): 24.0 h; AUCExtra [6]: 62.1%; AUMCExtra [6]: 92.4%; Tlast [6]: 24.0 h; AUC0-last [7]: 54.5 ng·h/mL and 31.7 ng·h/mL; Cmax [7]: 2.21 ng/mL and 4.61 ng/mL and 1.90 ng/mL; MRT0-last [7]: 10.9 h and 11.4 h; Tmax [7]: 4.00 h
